Test results as given in paper PMC4498294, “Tetrahydroisoquinolines affect the whole-cell phenotype of Mycobacterium tuberculosis by inhibiting the ATP-dependent MurE ligase” (Journal of Antimicrobial Chemotherapy, 2015).
Converted amounts (≈) assume the structure as drawn. “And” between values parts separate entries of the source, which are not always exact repeats. Equal entries are not always repeated. Where two headings read alike, the source gives them in different places.

What was measured:
[1] = test system: murine macrophage cell line RAW264.7; assay: Eukaryotic cell toxicity assay, RAW264.7; assay type: cell-based; conditions: Mus musculus
M. bovis BCG Pasteur = assay: microbe, parasite or virus in culture; assay type: cell-based; conditions: for MIC: Mycobacterium tuberculosis variant bovis BCG, BCG; for MIC M. bovis BCG: SPOTi, 2 weeks at 37°C
[2] = biological target: MurE (Rv2158c) protein of M. tuberculosis H37Rv (Mycobacterium tuberculosis, UniProt P9WJL3); assay: Mtb-MurE HPLC inhibition assay; assay type: biochemical; conditions: HPLC assay, 37°C 30 min
MurE (Rv2158c) protein of M. tuberculosis H37Rv, sequence (P9WJL3 whole entry, looked up): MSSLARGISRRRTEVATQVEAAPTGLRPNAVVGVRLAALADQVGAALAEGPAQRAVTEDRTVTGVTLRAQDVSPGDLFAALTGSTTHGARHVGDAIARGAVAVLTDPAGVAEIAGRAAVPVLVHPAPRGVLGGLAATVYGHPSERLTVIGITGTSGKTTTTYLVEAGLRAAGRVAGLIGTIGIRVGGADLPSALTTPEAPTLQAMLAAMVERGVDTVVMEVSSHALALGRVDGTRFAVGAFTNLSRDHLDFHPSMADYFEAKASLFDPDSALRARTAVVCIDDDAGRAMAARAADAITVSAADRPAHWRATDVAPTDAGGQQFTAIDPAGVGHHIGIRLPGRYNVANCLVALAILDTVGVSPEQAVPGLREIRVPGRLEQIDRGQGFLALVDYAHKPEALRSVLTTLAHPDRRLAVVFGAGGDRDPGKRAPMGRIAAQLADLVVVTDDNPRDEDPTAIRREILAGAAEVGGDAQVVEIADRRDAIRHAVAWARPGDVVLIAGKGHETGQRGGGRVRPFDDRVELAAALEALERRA

R. equi RHA1 = assay: SPOTi assay, R. equi RHA1; assay type: cell-based, Rhodococcus equi; conditions: 30°C 48 h; for MIC: Rhodococcus (subgen. Prescottella) equi, RHA1, LB
P. putida = assay: SPOTi assay, P. putida; assay type: cell-based, Pseudomonas putida; conditions: LB, 37°C overnight; for MIC: Pseudomonas putida
M. smegmatis mc^2155 = assay: SPOTi assay, M. smegmatis; assay type: cell-based, Mycobacterium smegmatis; conditions: for MIC: Mycolicibacterium smegmatis, MC^2155
M. tuberculosis H37Rv = assay: SPOTi growth inhibition assay, M. tuberculosis H37Rv; assay type: cell-based; conditions: for MIC: Mycobacterium tuberculosis, H37RV
M. aurum = assay: SPOTi assay, M. aurum; assay type: cell-based, Mycobacterium aurum; conditions: for MIC: Mycolicibacterium aurum
E. coli K12 = assay: SPOTi assay, E. coli; assay type: cell-based, Escherichia coli; conditions: 37°C overnight; for MIC: Escherichia coli, K12, LB
[3] = RAW264.7, value in square brackets, read-out: GIC50 RAW264.7
[4] = murine macrophage cell line RAW264.7, read-out: GIC50 RAW264.7
[5] = 336 h, read-out: MIC M. bovis BCG, SPOTi, 2 weeks at 37°C
[6] = read-out: MIC M. bovis BCG, SPOTi, value in square brackets
[7] = 336 h, read-out: MIC M. tuberculosis H37Rv, SPOTi, 2 weeks at 37°C
[8] = SPOTi, value in square brackets, read-out: MIC M. tuberculosis H37Rv
[9] = RAW264.7, read-out: GIC50 RAW264.7
[10] = 336 h, SPOTi, 2 weeks at 37°C, read-out: MIC M. tuberculosis H37Rv

Structure (SMILES)	IC50 [1, 3]	IC50 [1, 4]	MIC (M. bovis BCG Pasteur; [5])	MIC (M. bovis BCG Pasteur; [6])	other results
Oc1cc2c(cc1O)[C@@H](O)CNC2c1cccc2c1OCO2 (stereo partly drawn) [Compound 30]	295 µM	89 µg/mL	> 100 µg/mL	> 332 µM	–
Oc1cccc(CC2NCCc3cc(O)c(O)cc32)c1 (stereo not drawn) [Compound 17]	236 µM	64 µg/mL	> 100 µg/mL	> 369 µM	–
CCCCCCCCCC1NCCc2cc(O)c(O)cc21 (stereo not drawn) [Compound 24]	5.5 µM	1.6 µg/mL	> 60 µg/mL	275 µM	MIC M. bovis BCG (M. bovis BCG Pasteur): 80 µg/mL (≈ 275 µM); IC50 [2]: 186 µM; MIC (R. equi RHA1): > 100 µg/mL; MIC (P. putida): > 100 µg/mL; MIC (M. smegmatis mc^2155): 100 µg/mL (≈ 343 µM); MIC (M. tuberculosis H37Rv; [7]): 80 µg/mL; MIC (M. tuberculosis H37Rv; [8]): 206 µM; MIC M. tuberculosis H37Rv (M. tuberculosis H37Rv; SPOTi, 2 weeks at 37°C): 60 µg/mL (≈ 206 µM); MIC (M. aurum): 100 µg/mL (≈ 343 µM); MIC (E. coli K12): > 100 µg/mL
Oc1cccc(C2NCCc3cc(O)c(O)cc32)c1 (stereo not drawn) [Compound 7]	342 µM	88 µg/mL	> 100 µg/mL	> 389 µM	–
Oc1cc2c(cc1O)C(c1cccs1)NCC2 (stereo not drawn) [Compound 9]	–	–	> 100 µg/mL	> 404 µM	IC50 [1, 9]: 56 µg/mL and 226 µM
CN1C[C@H](O)c2cc(O)c(O)cc2[C@@H]1c1cccc2c1OCO2 [Compound 31]	434 µM	137 µg/mL	> 100 µg/mL	> 317 µM	–
Oc1cc2c(cc1O)C(c1ccccn1)NCC2 (stereo not drawn) [Compound 4]	248 µM	60 µg/mL	> 100 µg/mL	> 413 µM	–
COc1cc(CC2NCCc3cc(O)c(O)cc32)ccc1O (stereo not drawn) [Compound 19]	166 µM	50 µg/mL	> 100 µg/mL	> 332 µM	–
COc1ccc(Cl)c2c1C(Cc1ccc3c(c1)OCO3)NCC2 (stereo not drawn) [Compound 36]	124 µM	41 µg/mL	40 µg/mL	121 µM	MIC (R. equi RHA1): > 100 µg/mL; MIC (P. putida): > 100 µg/mL; MIC (M. smegmatis mc^2155): 60 µg/mL (≈ 181 µM); MIC (M. tuberculosis H37Rv; [10]): 60 µg/mL; MIC (M. tuberculosis H37Rv; [8]): 181 µM; MIC (M. aurum): 60 µg/mL (≈ 181 µM); MIC (E. coli K12): > 100 µg/mL
OC[C@@H](O)[C@@H]1NCCc2cc(O)c(O)cc21 [Compound 14]	377 µM	85 µg/mL	> 100 µg/mL	> 444 µM	–
COc1ccc(Br)c2c1C(Cc1ccc3c(c1)OCO3)NCC2 (stereo not drawn) [Compound 37]	80 µM	30 µg/mL	30 µg/mL	53 µM	MIC M. bovis BCG (M. bovis BCG Pasteur): 20 µg/mL (≈ 53.2 µM); IC50 [2]: 165 µM; MIC (M. tuberculosis H37Rv; [7]): 40 µg/mL; MIC (M. tuberculosis H37Rv; [8]): 106 µM
Oc1cc2c(cc1O)C(Cc1ccc3c(c1)OCO3)NCC2 (stereo not drawn) [Compound 20]	602 µM	190 µg/mL	> 60 µg/mL	334 µM	MIC M. bovis BCG (M. bovis BCG Pasteur): 100 µg/mL (≈ 334 µM); IC50 [2]: 237 µM; MIC (R. equi RHA1): > 100 µg/mL; MIC (P. putida): > 100 µg/mL; MIC M. smegmatis mc^2155 (M. smegmatis mc^2155): >100 µg/mL; MIC (M. smegmatis mc^2155): > 100 µg/mL; MIC M. aurum (M. aurum): >100 µg/mL; MIC (M. aurum): > 100 µg/mL; MIC (E. coli K12): > 100 µg/mL
COc1ccc(C2NCCc3cc(O)c(O)cc32)cc1 (stereo not drawn) [Compound 5]	335 µM	91 µg/mL	> 100 µg/mL	> 369 µM	–
Oc1cc2c(cc1O)[C@@H](O)CN[C@H]2Cc1ccccc1 [Compound 10]	–	–	> 60 µg/mL	–	IC50 [1, 9]: > 250 µg/mL and > 566 µM; MIC (M. bovis BCG Pasteur; 336 h, read-out: MIC M. bovis BCG, SPOTi, value in square brackets): 271 µM; MIC M. bovis BCG (M. bovis BCG Pasteur): 100 µg/mL (≈ 369 µM)
Oc1ccc2c(c1)CCNC2c1cccc2c1OCO2 (stereo not drawn) [Compound 34]	672 µM	181 µg/mL	> 100 µg/mL	> 371 µM	IC50 [2]: > 1000 µM
Oc1cc2c(cc1O)C(c1ccccc1O)NCC2 (stereo not drawn) [Compound 8]	338 µM	87 µg/mL	> 100 µg/mL	> 389 µM	–
Oc1ccc(CC2NCCc3cc(O)c(O)cc32)cc1 (stereo not drawn) [Norcoclaurine (2), Norcoclaurine]	1570 µM	425 µg/mL	> 100 µg/mL	> 369 µM	IC50 [2]: 837 µM
Oc1cc2c(cc1O)C(Cc1ccccc1Br)NCC2 (stereo not drawn) [Compound 21]	141 µM	47 µg/mL	> 100 µg/mL	> 299 µM	–
Oc1cc2c(c(O)c1O)C(c1cccc3c1OCO3)NCC2 (stereo not drawn) [Compound 33]	18 µM	5.5 µg/mL	> 100 µg/mL	> 332 µM	IC50 [2]: 148 µM

Structure (SMILES)	IC50 [1, 3]	IC50 [1, 4]	MIC (M. bovis BCG Pasteur; [5])	MIC (M. bovis BCG Pasteur; [6])	other results
Oc1ccc(C2NCCc3cc(O)c(O)cc32)cc1 (stereo not drawn) [Compound 6]	358 µM	92 µg/mL	> 100 µg/mL	> 389 µM	–
C[C@@H]1NC(Cc2ccc3c(c2)OCO3)c2ccc(O)cc2[C@H]1O (stereo partly drawn) [Compound 25]	578 µM	181 µg/mL	> 100 µg/mL	> 319 µM	–
NC[C@H]1O[C@H](O[C@H]2[C@H](O)[C@@H](O[C@H]3O[C@H](CO)[C@@H](O)[C@H](N)[C@H]3O)[C@H](N)C[C@@H]2N)[C@H](O)[C@@H](O)[C@@H]1O [Kanamycin, reference compound]	–	–	–	–	MIC R. equi RHA1 (R. equi RHA1; LB): 1 µg/mL (≈ 2.06 µM); MIC P. putida (P. putida): 10 µg/mL (≈ 20.6 µM); MIC E. coli K12 (E. coli K12; LB): 1 µg/mL (≈ 2.06 µM)
CC(C)=CCC[C@H](C)CC1NCCc2cc(O)c(O)cc21 (stereo partly drawn) [Compound 13]	> 864 µM	> 250 µg/mL	> 60 µg/mL	346 µM	MIC M. bovis BCG (M. bovis BCG Pasteur): 100 µg/mL (≈ 346 µM)
Nc1ccc2c(c1)CCNC2Cc1ccccc1 (stereo not drawn) [Compound 15]	789 µM	188 µg/mL	> 100 µg/mL	> 420 µM	–
Oc1cc2c(cc1O)C(c1cncc3ccccc13)NCC2 (stereo not drawn) [Compound 12]	> 855 µM	> 250 µg/mL	> 100 µg/mL	> 342 µM	–
COc1ccc(CC2NCCc3cc(O)c(O)cc32)cc1OC (stereo not drawn) [Compound 18]	178 µM	56 µg/mL	> 100 µg/mL	> 317 µM	–
O=C(O)[C@@H]1Cc2cc(O)c(O)cc2C(Cc2ccc3c(c2)OCO3)N1 (stereo partly drawn) [Compound 26]	533 µM	183 µg/mL	> 100 µg/mL	> 291 µM	–
COc1ccc(I)c2c1C(Cc1ccc3c(c1)OCO3)NCC2 (stereo not drawn) [Compound 38]	66 µM	28 µg/mL	50 µg/mL	118 µM	IC50 [2]: < 111 µM; MIC (M. tuberculosis H37Rv; [10]): 30 µg/mL; MIC (M. tuberculosis H37Rv; [8]): 71 µM
Oc1ccc2c(c1)CCNC2Cc1ccccc1 (stereo not drawn) [Compound 16]	683 µM	195 µg/mL	> 60 µg/mL	418 µM	MIC M. bovis BCG (M. bovis BCG Pasteur): 100 µg/mL (≈ 418 µM)
CN1C[C@H](O)c2cc(O)c(O)cc2[C@H]1c1cccc2c1OCO2 [Compound 32]	574 µM	181 µg/mL	> 100 µg/mL	> 317 µM	–
Oc1cc2c(cc1O)C(C1CCCCC1)NCC2 (stereo not drawn) [Compound 23]	182 µM	45 µg/mL	> 100 µg/mL	> 404 µM	MIC (M. tuberculosis H37Rv; [10]): > 100 µg/mL; MIC (M. tuberculosis H37Rv; [8]): > 404 µM
Oc1cc2c(cc1O)C(Cc1ccccc1)NCC2 (stereo not drawn) [Compound 3]	313 µM	81 µg/mL	> 100 µg/mL	> 392 µM	–
Oc1ccc2c(c1)CCNC2Cc1ccc2c(c1)OCO2 (stereo not drawn) [Compound 27]	529 µM	150 µg/mL	100 µg/mL	353 µM	IC50 [2]: > 1000 µM
COc1cc2c(c(O)c1OC)C[C@H]1c3c(cc4c(c3-2)OCO4)CCN1C [(S)-Leucoxine (1), (S)-Leucoxine]	352 µM	125 µg/mL	25 µg/mL	70 µM	IC50 [2]: 820 µM; MIC (M. tuberculosis H37Rv; [10]): 30 µg/mL; MIC (M. tuberculosis H37Rv; [8]): 84 µM
Oc1cc2c(cc1O)C(c1cccc3c1OCO3)NCC2 (stereo not drawn) [Compound 29]	263 µM	75 µg/mL	> 100 µg/mL	> 351 µM	IC50 [2]: 471 µM
CC1(C(=O)O)NCCc2cc(O)c(O)cc21 (stereo not drawn) [Compound 22]	797 µM	178 µg/mL	> 100 µg/mL	> 448 µM	–
O=C(O)[C@@H]1Cc2cc(O)c(O)cc2[C@@H](Cc2ccccc2)N1 [Compound 11]	291 µM	87 µg/mL	> 100 µg/mL	> 334 µM	–
COc1cccc2c1C(Cc1ccc3c(c1)OCO3)NCC2 (stereo not drawn) [Compound 40]	740 µM	220 µg/mL	> 50 µg/mL	> 168 µM	IC50 [2]: 300 µM; MIC (M. tuberculosis H37Rv; [10]): > 100 µg/mL; MIC (M. tuberculosis H37Rv; [8]): > 336 µM
